# Results published in US8304422B2, “Compositions and methods for inhibition of the JAK pathway” (Rigel Pharmaceuticals, Inc., priority 2007, dated 2012).
# How the values were obtained:
# [1] = system: Ramos B-Cell Line Stimulated with IL-4; test: Assay for Ramos B-Cell Line Stimulated with IL-4 (CD23 upregulation, FACS; Example 2); type: cell-based; conditions: human Ramos B cells, IL-4 50 units/mL for 20-24 hours, anti-CD23-PE
# From the text: One means of assaying for such inhibition is detection of the effect of the 2,4-pyrimidinediamine compounds on the upregulation of downstream gene products. In the Ramos/IL4 assay, B-cells are stimulated with the cytokine Interleukin-4 (IL-4) leading to the activation of the JAK/Stat pathway through phosphorylation of the JAK family kinases, JAK1 and JAK3, which in turn phosphorylate and activate the transcription factor Stat-6. […] To study the effect of inhibitors (e.g., the 2,4-substituted pyrimindinediamine compounds described herein) on the JAK1 and JAK3 kinases, human Ramos B cells are stimulated with human IL-4. 20 to 24 hours post stimulation, cells are stained for upregulation of CD23 and analyzed using flow cytometry (FACS). […] An exemplary assay of this type is described in greater detail in Example 2.
# B-cells stimulated with cytokine Interleukin-4 (IL-4) activate the JAK/Stat pathway through phosphorylation of the JAK family kinases, JAK-1 and JAK-3, which in turn phosphorylate and activate the transcription factor Stat-6. […] To study the effect of inhibitors on the JAK family kinases, human Ramos B cells are stimulated with human IL-4.
# The Ramos B-cell line was acquired from ATCC (ATCC Catalog No. CRL-1596). The cells were cultured in RPMI 1640 (Cellgro, MediaTech, Inc., Herndon, Va., Cat No. 10-040-CM) with 10% fetal bovine serum (FBS), heat inactivated (JRH Biosciences, Inc, Lenexa, Kans., Cat No. 12106-500M) according to ATCC propagation protocol. Cells were maintained at a density of 3.5×10^5. The day before the experiment, Ramos B-cells were diluted to 3.5×10^5 cells/mL to ensure that they were in a logarithmic growth phase.
# Cells were spun down and suspended in RPMI with 5% serum. 5×10^4 cells were used per point in a 96-well tissue culture plate. Cells were pre-incubated with compound or DMSO (Sigma-Aldrich, St. Louis, Mo., Cat No. D2650) vehicle control for 1 hour in a 37° C. incubator.
# Cells were then stimulated with IL-4 (Peprotech Inc., Rocky Hill, N.J., Cat No. 200-04) for a final concentration of 50 units/mL for 20-24 hours. Cells were then spun down and stained with anti-CD23-PE (BD Pharmingen, San Diego, Calif., Cat No. 555711) and analyzed by FACS. Detection was performed using a BD LSR I System Flow Cytometer, purchased from Becton Dickinson Biosciences of San Jose, Calif.
# BaF3 V617F cells; UKE-1 = test: Proliferation Assay (Cell Titer-Glo; Example 7); type: cell-based; conditions: proliferation 72 hours, inhibit JAK2 activity, cell line (BaF3 V617F or UKE-1) not stated
# Procedure, shortened: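 Proliferation IC50s reflect 72 h compound exposure at 37 °C, read by Cell Titer-Glo luminescence. Compound was serially diluted 3-fold from a 5 mM DMSO stock and added as a 2× solution; BaF3 V617F cells were grown in RPMI/10% FBS, UKE-1 in Iscove's DMEM with FBS, equine serum and hydrocortisone.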
SMILES,IC50 [1] [nM],IC50 (BaF3 V617F cells; UKE-1) [nM]
"Cc1cc(C)cc(Nc2ncc(C)c(Nc3ccc(CNS(=O)(=O)C4CC4)cc3)n2)c1 [II-7, N4-(4-cyclopropylsulfonylaminomethyl)phenyl-N2-(3,5-dimethyl)phenyl-5-methyl-2,4-pyrimidinediamine]",44.9,688
"CCN1CCN(c2ccc(Nc3ncc(C)c(Nc4cccc(CNS(=O)(=O)C5CC5)c4)n3)cc2C)CC1 [II-12, N4-(3-cyclopropylsulfonylaminomethyl)phenyl-N2-[4-(4-ethylpiperazino)-3-methyl]phenyl-5-methyl-2,4-pyrimidinediamine]",101,130
"NC(=O)c1ccc(Nc2ncc(F)c(Nc3ccc(CNS(=O)(=O)C4CC4)cc3)n2)cc1 [II-15, N2-(4-aminocarbonyl)phenyl-N4-(4-cyclopropylsulfonylaminomethyl)phenyl-5-fluoro-2,4-pyrimidinediamine]",78.1,8060
"Cc1cnc(Nc2ccc(C#N)cc2)nc1Nc1ccc(CNS(=O)(=O)C2CC2)cc1 [II-33, N2-(4-cyano)phenyl-N4-(4-cyclopropylsulfonylaminomethyl)phenyl-5-methyl-2,4-pyrimidinediamine]",20.3,698
"Cc1cc(C)cc(Nc2ncc(C)c(Nc3ccc(CNS(=O)(=O)C4CC4)c(Cl)c3)n2)c1 [II-38, N4-(3-chloro-4-cyclopropylsulfonylaminomethyl)phenyl-N2-(3,5-dimethyl)phenyl-5-methyl-2,4-pyrimidinediamine]",331,1540
"Cc1cnc(Nc2ccc(C(N)=O)cc2)nc1Nc1ccc(CNS(=O)(=O)C2CC2)cc1 [II-31, N2-(4-aminocarbonyl)phenyl-N4-(4-cyclopropylsulfonylaminomethyl)phenyl-5-methyl-2,4-pyrimidinediamine]",35.7,2130
"CCN1CCN(c2ccc(Nc3ncc(C)c(Nc4ccc(CNS(=O)(=O)C5CC5)cc4)n3)cc2C)CC1 [II-8, N4-(4-cyclopropylsulfonylaminomethyl)phenyl-N2-[4-(4-ethylpiperazino)-3-methyl]phenyl-5-methyl-2,4-pyrimidinediamine]",36.2,200
"Cc1cnc(Nc2cccc(C#N)c2)nc1Nc1cccc(CNS(=O)(=O)C2CC2)c1 [II-26, N2-(3-cyano)phenyl-N4-(3-cyclopropylsulfonylaminomethyl)phenyl-5-methyl-2,4-pyrimidinediamine]",146,2240
"NC(=O)c1cccc(Nc2ncc(F)c(Nc3ccc(CNS(=O)(=O)C4CC4)cc3)n2)c1 [II-16, N2-(3-aminocarbonyl)phenyl-N4-(4-cyclopropylsulfonylaminomethyl)phenyl-5-fluoro-2,4-pyrimidinediamine]",265,3290
"COc1c(C)cc(Nc2ncc(Cl)c(Nc3ccc(CNS(=O)(=O)C4CC4)cc3)n2)cc1C [II-43, 5-chloro-N4-(4-cyclopropylsulfonylaminomethyl)phenyl-N2-(3,5-dimethyl-4-methoxy)phenyl-2,4-pyrimidinediamine]",38.6,23.9
"Cc1cnc(Nc2cccc(C(N)=O)c2)nc1Nc1cccc(CNS(=O)(=O)C2CC2)c1 [II-24, N2-(3-aminocarbonyl)phenyl-N4-(3-cyclopropylsulfonylaminomethyl)phenyl-5-methyl-2,4-pyrimidinediamine]",280,
"COc1cccc(N(C)c2ncc(N)c(Nc3cccc(S(N)(=O)=O)c3)n2)c1 [I-10, 5-Amino-N4-(3-aminosulfonylphenyl)-N2-(3-methoxyphenyl)-N2-methyl-2,4-pyrimidinediamine]",64200,
"CNC(=O)COc1cccc(Nc2ncc(N)c(Nc3ccc(S(N)(=O)=O)cc3)n2)c1 [I-6, 5-Amino-N4-(4-aminosulfonylphenyl)-N2-[3-(N-methylamino)carbonylmethyleneoxyphenyl]-2,4-pyrimidinediamine]",8800,
"CNC(=O)COc1cccc(Nc2ncc(N)c(Nc3cccc(S(N)(=O)=O)c3)n2)c1 [I-7, 5-Amino-N4-(3-aminosulfonylphenyl)-N2-[3-(N-methylamino)carbonylmethyleneoxyphenyl]-2,4-pyrimidinediamine]",5820,
"Cc1cnc(Nc2cccc(C(N)=O)c2)nc1Nc1ccc(CN(C)S(=O)(=O)C2CC2)cc1 [II-20, N2-(3-aminocarbonyl)phenyl-N4-[4-(N-cyclopropylsulfonyl-N-methyl)aminomethyl]phenyl-5-methyl-2,4-pyrimidinediamine]",505,
"C#CCNS(=O)(=O)c1cccc(Nc2nc(Nc3cc(OC)c(OC)c(OC)c3)ncc2F)c1 [I-1, 5-Fluoro-N4-[3-(prop-2-ynylaminosulfonyl)phenyl]-N2-(3,4,5-trimethoxyphenyl)-2,4-pyrimidinediamine]",140,
"O=S(=O)(NCc1ccc(Nc2nc(Nc3ccc(F)c(F)c3)ncc2F)cc1)C1CC1 [II-2, N4-(4-cyclopropylsulfonylaminomethyl)phenyl-N2-(3,4-difluoro)phenyl-5-fluoro-2,4-pyrimidinediamine]",614,
"C#CCOc1ccc(Nc2ncc(C)c(Nc3ccc(C)c(S(N)(=O)=O)c3)n2)cc1 [I-2, N4-(3-Aminosulfonyl-4-methylphenyl)-5-methyl-N2-[4-(prop-2-ynyloxy)phenyl]-2,4-pyrimidinediamine]",181,

# Next, values leading:
IC50 [1] [nM],IC50 (BaF3 V617F cells; UKE-1) [nM],SMILES
26.6,1450,"Cc1nc2cc(Nc3ncc(Cl)c(Nc4ccc(CNS(=O)(=O)C5CC5)cc4)n3)ccc2[nH]1 [III-6, 5-chloro-N4-(4-cyclopropylsulfonylaminomethyl)phenyl-N2-(2-methylbenzoimidazol-5-yl)-2,4-pyrimidinediamine]"
70.9,,Cc1cc(Nc2ncc(F)c(Nc3ccc4c(c3)CCN4S(C)(=O)=O)n2)ccc1N1CCN(C)CC1 [VIII-5]
127,,"Cc1cnc(Nc2ccc3[nH]c(C(C)(C)C)nc3c2)nc1Nc1ccc(CNS(=O)(=O)C2CC2)cc1 [IV-4, N2-(2-tert-butylbenzoimidazol-5-yl)-N4-(4-cyclopropylsulfonylaminomethyl)phenyl-5-methyl-2,4-pyrimidinediamine]"
5110,,"Nc1cnc(Nc2ccc3cn[nH]c3c2)nc1Nc1cccc(S(N)(=O)=O)c1 [VIII-8, 5-Amino-N4-(3-aminosulfonylphenyl)-N2-(indazoline-6-yl)-2,4-pyrimidinediamine]"
717,,"Cc1cnc(Nc2ccc3c(c2)nc(C)n3C)nc1Nc1ccc2c(c1)C(NS(C)(=O)=O)CC2 (racemic) [VIII-3, (+/−)-N2-(1,2-Dimethylbenzimidazol-5-yl)-N4-[1-(methylsulfonylamino)indan-6-yl]-5-methyl-2,4-pyrimidinediamine]"
242,,"CS(=O)(=O)N1CCc2cc(Nc3nc(Nc4ccc5nc(C(F)(F)F)[nH]c5c4)ncc3F)ccc21 [VIII-4, 5-Fluoro-N4-[(1-methylsulfonyl)indolin-5-yl]-N2-(2-trifluoromethylbenzimidazol-5-yl)-2,4-pyrimidinediamine]"
178,,"Cc1cnc(Nc2ccc3[nH]c(-c4cccnc4)nc3c2)nc1Nc1ccc(CNS(=O)(=O)C2CC2)cc1 [IV-3, N4-(4-cyclopropylsulfonylaminomethyl)phenyl-5-methyl-N2-[2-(pyridin-3-yl)benzoimidazol-5-yl]-2,4-pyrimidinediamine]"
